Experimental data from patent US11214803B2, “Modulators of YAP1 expression” (Ionis Pharmaceuticals, Inc., priority 2019, dated 2022).
Strand notation (5' to 3'): a small letter for the sugar, then the base; units joined by * are phosphorothioate-linked, units joined directly phosphodiester-linked; [ ] holds rarer units or linkages, { } end groups; capitals alone tell only the bases. e = 2'-O-(2-methoxyethyl) (MOE); k = constrained ethyl (cEt); [5mC] = 5-methylcytosine; d = 2'-deoxy (DNA); m = 2'-O-methyl

These substances were tested on Yap1 mRNA (assay: Antisense inhibition of human Yap1 in SNU-449 cells by modified oligonucleotides, single dose (Example 5, RTS36584)). Details: Table 39; SNU-449 cells, 10,000 cells per well, free uptake, 2,000 nM oligonucleotide, approx. 48 hours; RTS36584; normalized to RIBOGREEN; Yap1 mRNA relative to untreated control.
Format: cell-based
Procedure, shortened: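 Free uptake, 2,000 nM, ~48 h, SNU-449 at 10,000 cells/well. Read-out: qRT-PCR (RTS36584), RIBOGREEN-normalised, expressed as % UTC. Asterisk = oligo hits amplicon region.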

Substance	YAP1 (% UTC)
1198406 (kG*d[5mC]*dT*dT*dT*dG*dG*dA*dA*dG*dA*kT*e[5mC]*kT*eG*kA; antisense) [Compound 1198406]	17
1198388 (kT*dA*dT*dA*dA*d[5mC]*dT*dG*dG*dG*d[5mC]*kA*eA*kA*eT*kT; antisense) [Compound 1198388]	90
1198429 (kA*dT*dT*dG*d[5mC]*dA*dA*dT*d[5mC]*dT*dG*kT*e[5mC]*kT*eG*kA; antisense) [Compound 1198429]	48
1198433 (kG*dT*dA*dA*dT*dA*dT*dT*dG*d[5mC]*dA*kA*eT*k[5mC]*eT*kG) [Compound 1198433]	36
1095379 (antisense kA*d[5mC]*dT*dG*dA*dG*dG*dT*dA*dT*dA*kA*e[5mC]*kT*eG*kG) [Compound 1095379]	52
1198372 (kA*dA*dT*dT*dG*dT*d[5mC]*dT*d[5mC]*dA*dT*kG*e[5mC]*k[5mC]*eT*kT; antisense) [Compound 1198372]	21

Same assay, conditions: Table 40 (separate experiment); SNU-449 cells, 10,000 cells per well, free uptake, 2,000 nM oligonucleotide, approx. 48 hours; RTS36584; normalized to RIBOGREEN; Yap1 mRNA relative to untreated control

Substance	YAP1 (% UTC)
1198717 (kA*eA*kA*dT*dT*dG*dT*d[5mC]*dT*d[5mC]*dA*dT*eG*e[5mC]*k[5mC]*kT; antisense) [Compound 1198717]	41
1198746 (kG*e[5mC]*kA*d[5mC]*dT*dT*dT*dT*dA*d[5mC]*dA*dT*eT*eA*kG*kG; antisense) [Compound 1198746]	7
1198747 (kA*eG*k[5mC]*dA*d[5mC]*dT*dT*dT*dT*dA*d[5mC]*dA*eT*eT*kA*kG; antisense) [Compound 1198747]	38

Same assay, conditions: Table 41; SNU-449 cells, 10,000 cells per well, free uptake, 2,000 nM modified oligonucleotide, approximately 48 hours; RTS36584; normalized to RIBOGREEN; Yap1 mRNA relative to untreated control cells

Substance	YAP1 (% UTC)
1198740 (AACACTGAGGTATAAC; all C 5-methyl, sugars by position and backbone not given here; position 2 notation garbled, mixed cEt/MOE/deoxy gapmer) [Compound 1198740]	39
1198677 (antisense kA*kT*dT*d[5mC]*dA*dG*dA*dT*dT*dT*dA*dG*kG*eA*kT*eG) [Compound 1198677]	87

Same assay, conditions: Table 42 (separate experiment); SNU-449 cells, 10,000 cells per well, free uptake, 2,000 nM modified oligonucleotide, approximately 48 hours; RTS36584; normalized to RIBOGREEN; Yap1 mRNA relative to untreated control cells

Substance	YAP1 (% UTC)
1198225 (k[5mC]*kA*d[5mC]*dT*dT*dT*dT*dA*d[5mC]*dA*dT*eT*eA*eG*kG*kA) [Compound 1198225]	67
1198214 (kT*kA*dT*dA*dT*dT*dA*dG*dA*dG*dT*eA*eT*eG*kT*kG; antisense) [Compound 1198214]	91

Same assay, conditions: Table 43 experiment; SNU-449 cells, 10,000 cells per well, free uptake, 2,000 nM, approximately 48 hours; RTS36584; Yap1 mRNA normalized to RIBOGREEN, relative to untreated control cells

Substance	YAP1 (% UTC)
1198266 (kT*kG*dT*dA*dT*dG*dT*d[5mC]*dA*dG*dA*eA*eG*eA*kG*kT; antisense) [Compound 1198266]	25
1198465 (antisense kA*kG*dT*dA*dT*dG*dT*dG*dG*d[5mC]*dA*eA*kT*eA*kA*eT) [Compound 1198465]	68

Same assay, conditions: Table 44 experiment; SNU-449 cells, 10,000 cells per well, free uptake, 2,000 nM, approximately 48 hours; RTS36584; Yap1 mRNA normalized to RIBOGREEN, relative to untreated control cells

Substance	YAP1 (% UTC)
1198906 (kT*kA*dT*dA*dT*dT*dA*dG*dA*dG*dT*kA*dT*kG*dT*kG; antisense) [Compound 1198906]	56
1198525 (kA*kG*dT*dG*dT*dA*dT*dG*dT*d[5mC]*dA*eG*kA*eA*kG*eA; antisense) [Compound 1198525]	2

Same assay, conditions: Table 45; Yap1 mRNA as percent of untreated control, SNU-449 cells, single dose

Substance	YAP1 (% UTC)
1198941 (kT*kT*dA*dT*dA*dT*dG*dG*dT*dT*dT*kT*dG*kT*dG*kT; antisense) [Compound 1198941]	35
1198918 (kG*k[5mC]*dA*d[5mC]*dT*dT*dT*dT*dA*d[5mC]*dA*kT*dT*kA*dG*kG) [Compound 1198918]	27
1198933 (kT*kT*dT*dA*dG*dG*dA*dT*dG*d[5mC]*dA*kT*dG*kG*dT*kT; antisense) [Compound 1198933]	69
1198910 (kA*kG*dG*dT*dA*dT*dA*dA*d[5mC]*dT*dG*kG*dG*k[5mC]*dA*kA; antisense) [Compound 1198910]	40

Same assay, conditions: Table 46; Yap1 mRNA as percent of untreated control, SNU-449 cells, single dose

Substance	YAP1 (% UT)
1198830 (kA*k[5mC]*dT*dT*dT*dT*dA*d[5mC]*dA*dT*dT*kA*eG*kG*eA*kA) [Compound 1198830]	37
1198813 (antisense kA*kG*dT*dA*dT*dG*dT*dG*dG*d[5mC]*dA*kA*eT*kA*eA*kT) [Compound 1198813]	55

Same assay, conditions: Table 48; Yap1 mRNA level relative to untreated control; modified oligonucleotides targeting SEQ ID NO.: 1 and 2

Substance	YAP1 (% UT)
1009395 (k[5mC]*kT*kG*dA*dG*dG*dT*dA*dT*dA*dA*d[5mC]*dT*kG*kG*kG; antisense) [Compound 1009395]	43
1197202 (antisense kA*k[5mC]*kT*d[5mC]*dT*dT*dA*dT*dA*dT*dG*dG*dT*kT*kT*kT) [Compound 1197202]	27
1198296 (kT*kT*kA*dG*dA*dG*dT*dA*dT*dG*dT*dG*kG*e[5mC]*kA*eA; antisense) [Compound 1198296]	29
1198323 (kA*kG*kT*dG*d[5mC]*dT*dT*dT*dG*dG*dA*dA*kG*eA*kT*e[5mC]; antisense) [Compound 1198323]	32

Same assay, conditions: Table 49; Yap1 mRNA level relative to untreated control; modified oligonucleotides targeting SEQ ID NO.: 1 and 2

Substance	YAP1 (% UT)
1198335 (kT*kT*kA*dT*dA*dT*dG*dG*dT*dT*dT*dT*kG*eT*kG*eT; antisense) [Compound 1198335]	26
1198579 (antisense kT*kG*k[5mC]*dT*dT*dT*dG*dG*dA*dA*dG*dA*kT*k[5mC]*kT*eG) [Compound 1198579]	34
1198356 (kT*kA*kA*dA*dG*dT*dG*dT*dA*dT*dG*dT*k[5mC]*eA*kG*eA; antisense) [Compound 1198356]	5
1198349 (kA*kT*kG*dT*dA*dA*dT*dA*dT*dT*dG*d[5mC]*kA*eA*kT*e[5mC]) [Compound 1198349]	85
1198568 (antisense kA*k[5mC]*kT*dT*dT*dT*dA*d[5mC]*dA*dT*dT*dA*kG*kG*kA*eA) [Compound 1198568]	31

Same assay, conditions: Table 50; Yap1 mRNA remaining as percent of untreated control (UT), SNU-449 cells, single dose

Substance	YAP1 (% UT)
1198594 (antisense k[5mC]*kT*kT*dA*dT*dA*dT*dG*dG*dT*dT*dT*kT*kG*kT*eG) [Compound 1198594]	23
1197245 (antisense kT*kT*kT*dT*mA*d[5mC]*dA*dT*dT*dA*dG*dG*dA*kA*k[5mC]*kA) [Compound 1197245]	60

Same assay, conditions: Table 51; Yap1 mRNA remaining as percent of untreated control (UT), SNU-449 cells, single dose

Substance	YAP1 (% UT)
1197260 (kT*kT*kA*dT*mA*dT*dG*dG*dT*dT*dT*dT*dG*kT*kG*kT) [Compound 1197260]	65
1200800 (T_{ks}A_{ks}T_{ks}A_{ds}T_{ds}U_{ys}A_{ds}G_{ds}A_{ds}G_{ds}T_{ds}A_{ds}T_{ds}G_{ks}T_{ks}G_{k}; antisense; as printed in the source, key not given here) [Compound 1200800]	61

Same assay, conditions: Yap1 mRNA, percent of untreated control; modified oligonucleotides targeting SEQ ID NO: 1 and 2; Table 47

Substance	YAP1 (% UT)
1197187 (antisense kG*kG*kA*dA*dG*dA*dT*d[5mC]*dT*dG*dA*dA*dA*k[5mC]*kT*k[5mC]) [Compound 1197187]	24
1198860 (kA*kA*d[5mC]*dT*d[5mC]*dT*dT*dA*dT*dA*dT*kG*eG*kT*eT*kT; antisense) [Compound 1198860]	82
1198875 (kA*kA*dA*dG*dT*dG*dT*dA*dT*dG*dT*k[5mC]*eA*kG*eA*kA; antisense) [Compound 1198875]	5
1097238 (antisense kA*kT*kT*dG*d[5mC]*dA*dA*dT*d[5mC]*dT*dG*dT*d[5mC]*kT*kG*kA) [Compound 1097238]	77
1197191 (antisense kA*kG*kT*dG*d[5mC]*dT*dT*dT*dG*dG*dA*dA*dG*kA*kT*k[5mC]) [Compound 1197191]	40
